From EPA's ToxValDB 9.5

Tested on: Rattus norvegicus
Conditions: oral
[1] = short-term, duration: 28 days, gavage, F, Sprague-Dawley, Clinical Observation: Piloerection + Urinalysis: pH decrease, K decrease + Relative Organ Weight: Spleen increase
[2] = short-term, duration: 28 days, gavage, M, Sprague-Dawley, Clinical Observation: Piloerection + Urinalysis: pH decrease, K decrease + Relative Organ Weight: Spleen increase
[3] = short-term, duration: 28 days, gavage, M/F, Sprague-Dawley, Deaths + Clinical Observation: Tremor Locomotor activity decrease1000 Ptosis Prone position Lateral position Soiled peritoneal region …
[4] = short-term, duration: 28 days, gavage, M/F, CD(SD)ICS BR, Clinical Observation: Fur-staining Hypoactivity(one animal)Hunched posture(one animal)Weight loss(one animal)Pallor(one animal) + Urinalysis…
[5] = short-term, duration: 28 days, gavage, F, Sprague-Dawley, Clinical Observation: Soiled perigenital fur + Body Weight Changes: Gain decrease + Urinalysis: Pale yellow or yellow/slightly brownish + …
[6] = short-term, duration: 28 days, gavage, M, Sprague-Dawley, Clinical Observation: Soiled perigenital fur + Body Weight Changes: Gain decrease + Urinalysis: Pale yellow or yellow/slightly brownish + …
[7] = short-term, duration: 28 days, gavage, M, Sprague-Dawley, Clinical Observation: Locomotor activity decrease, SalivationRespiratory rate decrease, Incomplete eyelid opening + Body Weight Changes: …
[8] = short-term, duration: 28 days, gavage, F, Sprague-Dawley, Water Consumption: increase + Urinalysis: Volume increase, Osmolarity decrease, Bil increase + Hematology: RBC decrease300 Hgb decrease300 …
[9] = short-term, duration: 28 days, gavage, M, Sprague-Dawley, Water Consumption: increase + Urinalysis: Volume increase, Osmolarity decrease, Bil increase + Hematology: RBC decrease300 Hgb decrease300 …
[10] = subchronic, gavage, M, Sprague-Dawley, Clinical Observation: Salivation + Water Consumption: increase + Urinalysis: Urinary volume increase + Thyroid Hormone: Thyroid hormones', '…
[11] = short-term, duration: 28 days, gavage, M, Sprague-Dawley, Clinical Observation: Yellow-orange urine Soft stool DiarrheaSalivation + Body Weight Changes: decrease + Food Consumption: decrease + …
[12] = subchronic, gavage, M, Sprague-Dawley, Water Consumption: increase + Urinalysis: Osmotic pressure decrease, Volume increase, R

O=C(O)c1cccc([N+](=O)[O-])c1C(=O)O [3-Nitrophthalic acid]
NOAEL [1]: 500 mg/kg-day | NOEL [1]: 500 mg/kg-day | LOEL [2]: 500 mg/kg-day | NOAEL [2]: 500 mg/kg-day | NOEL [2]: 100 mg/kg-day

CN(C)c1cccc(C(=O)O)c1 [Benzoic acid, 3-(dimethylamino)-]
NOEL (subchronic, gavage, M, Sprague-Dawley, Clinical Observation: Salivation + Blood Chemistry: Bil increase, Cl decrease + Relative Organ Weight: Heart increase): 200 mg/kg-day

COC(=O)C1=C(C)NC(C)=C(C(=O)OCCN(C)Cc2ccccc2)C1c1cccc([N+](=O)[O-])c1.Cl (stereo unspecified) [Nicardipine hydrochloride]
NOEL (subchronic, duration: 35 days, gavage, M/F, Sprague-Dawley, Deaths + Clinical Observation: Locomotor activity decrease, Prone position Dyspnea Ataxic gait Ptosis Piloerection Respiratory rate increase…): 10 mg/kg-day

CC(C)N1C(=O)C=CC1=O [1-(Propan-2-yl)-1H-pyrrole-2,5-dione]
NOEL (short-term, duration: 28 days, gavage, M/F, Clinical Observation: Salivation + Organ Weight: Liver increase, Kidney increase + Necropsy: Liver- Enlargement Kidney- Enlargement): 40 mg/kg-day

O=C(O)CCCN1CCC(O[C@@H](c2ccc(Cl)cc2)c2ccccn2)CC1.O=S(=O)(O)c1ccccc1 [Bepotastine besylate]
NOAEL (short-term, duration: 28 days, gavage, M/F, CD, Clinical Observation: Mydriasis Salivation Soiled perineal region + Body Weight Changes: decrease + Food Consumption: decrease + Urinalysis…): 100 mg/kg-day

C1=Cc2cccc3cccc1c23 [Acenaphthylene]
NOEL (short-term, duration: 28 days, gavage, M/F, Crl:CD(SD), Deaths + Clinical Observation: Salivation, Rough coat, Wasting, Rearing cunut decrease + Functional Observational Battery: Forearm strength…): 4 mg/kg-day

CCC[CH2][Sn]([CH2]CCC)([CH2]CCC)[CH2]CCC [Tetrabutyltin]
NOAEL (subchronic, duration: 33 days, diet, M, Wistar, Body Weight Changes: Weight gain decrease + Absolute Organ Weight: Thymus decrease + Relative Organ Weight: Thymus decrease, Spleen decrease…): 9.6 mg/kg-day

Cc1cc(O)ccc1Cl [4-Chloro-3-methylphenol]
LOAEL [3]: 250 mg/kg-day | LOEL [3]: 250 mg/kg-day | NOAEL [3]: 60 mg/kg-day | NOEL [3]: 60 mg/kg-day

C=C[Si](OCCOC)(OCCOC)OCCOC [Tris(2-methoxyethoxy)vinylsilane]
NOAEL (short-term, duration: 28 days, gavage, M/F, CD(SD), Body Weight Changes: decrease + Food Consumption: decrease + Hematology: RBC decrease, HGB decrease, HCT decrease, MCHC decrease, RET …): 25 mg/kg-day

O=C(c1ccc(Cl)cc1)c1ccccc1Cl [2,4'-Dichlorobenzophenone]
NOEL (subchronic, gavage, M, Sprague-Dawley, Clinical Observation: Salivation (transient) + Functional Observational Battery: Salivation + Body Weight Changes: Gain decrease(trend) + …): 40 mg/kg-day

NCc1ccc(Cl)nc1 [5-(Aminomethyl)-2-chloropyridine]
NOEL (short-term, duration: 28 days, gavage, M/F, Clinical Observation: Salivation Locomotor activity decrease, Respiration rate decrease, Ptosis Lacrimation + Body Weight Changes: Weight …): 8 mg/kg-day

Cl.Cl.NCCNCCNCCN [Trientine hydrochloride]
NOAEL (chronic, duration: 92 days, drinking water, F, Fischer 344, Histopathology: Uterus: Increased prevalence of dilatation): 669 mg/kg-day

COCCC(=O)OC [Methyl 3-methoxypropionate]
NOEL (subchronic, duration: 42 days, gavage, M, Sprague-Dawley, Clinical Observation: Salivation + Food Consumption: decrease + Urinalysis: Volume increasep H decrease + Hematology: Mono increase + Blood …): 62.5 mg/kg-day

CC(C)OC(=O)C(C)(C)Oc1ccc(C(=O)c2ccc(Cl)cc2)cc1 [Fenofibrate]
NOAEL (chronic, duration: 91 days, gavage, M/F, CD, Body Weight Changes: decrease + Food Consumption: decrease + Urinalysis: WBCEpithelial cell + Hematology: RBC decrease, HCT decrease, HGB …): 5 mg/kg-day

OCC1CO1 (stereo unspecified) [Glycidol]
NOEL (subchronic, duration: 13 weeks, gavage, M/F, Fischer 344, Deaths + Body Weight Changes: decrease + Absolute Organ Weight: -- + Histopathology: Brain /cerebellum-Necrosis Brain-Demyelination Kidney-…): < 25 mg/kg-day

Clc1ccc(Cl)nn1 [Pyridazine, 3,6-dichloro-]
NOEL (short-term, duration: 28 days, gavage, F, Sprague-Dawley, Body Weight Changes: decrease, Weight gain decrease + Food Consumption: decrease + Urinalysis: BIL increase + Blood Chemistry: TP increase, …): 10 mg/kg-day

COC(=O)C1=C(C#N)NC(C)=C(C(=O)OC(C)C)C1c1cccc([N+](=O)[O-])c1 (stereo unspecified) [Nilvadipine]
NOEL (subchronic, gavage, M/F, Sprague-Dawley, Relative Organ Weight: Heart increase Liver increase Ovary increase + Histopathology: Adrenal-Lipoid increase, of zona glomerulosa): < 9.6 mg/kg-day

C=CC(C)(O)CCCC(C)CCCC(C)CCCC(C)C (stereo unspecified) [Isophytol]
NOAEL [4]: 500 mg/kg-day | NOEL [4]: 250 mg/kg-day

CCCN(CCC)S(=O)(=O)c1ccc(C(=O)O)cc1 [Probenecid]
NOEL (subchronic, duration: 13 weeks, gavage, M/F, Fischer 344, Clinical Observation: Yellow-brown staining of the perineum + Body Weight Changes: decrease + Absolute Organ Weight: Liver increase, Right …): < 50 mg/kg-day

CC(O)c1ccccc1 (stereo not drawn) [alpha-Methylbenzyl alcohol]
NOEL (subchronic, duration: 13 weeks, gavage, M/F, Fischer 344, Deaths + Clinical Observation: Ataxia Rapid breathing Lethargy + Body Weight Changes: decrease + Urinalysis: -- + Absolute Organ Weight: …): < 93 mg/kg-day

CCC(C)(C)OC [tert-Amyl methyl ether]
NOAEL (short-term, duration: 29 days, gavage, M/F, Sprague-Dawley, Deaths + Clinical Observation: Rales Anogenital staining + Body Weight Changes: Mean body weight decrease + Food Consumption: decrease + …): 125 mg/kg-day

CCC(C)(C)c1ccccc1 [tert-Pentylbenzene]
LOEL [5]: 1000 mg/kg-day | NOEL [5]: 300 mg/kg-day | LOEL [6]: 100 mg/kg-day | NOEL [6]: < 100 mg/kg-day

CN(C)C(=O)Nc1ccc(Cl)cc1 [Monuron]
NOAEL [7]: < 40 mg/kg-day | NOEL [7]: < 40 mg/kg-day

Nc1ccccc1-c1ccccc1 [2-Biphenylamine]
LOEL [8]: 30 mg/kg-day | NOEL [8]: < 30 mg/kg-day | LOEL [9]: 100 mg/kg-day | NOEL [9]: 30 mg/kg-day

O=C1CCc2ccccc2O1 [3,4-Dihydrocoumarin]
NOEL (subchronic, duration: 13 weeks, gavage, M/F, Fischer 344, Deaths + Body Weight Changes: decrease + Hematology: Plt decrease, Hct decrease, Hgb decrease, RBC decrease, WBC decrease, Lympho decrease…): < 75 mg/kg-day

O=C(Cl)c1ccc(Cl)cc1 [4-Chlorobenzoyl chloride]
LOEL [10]: 500 mg/kg-day | NOEL [10]: 100 mg/kg-day

ClC(Cl)C(Cl)Cl [1,1,2,2-Tetrachloroethane]
NOEL (subchronic, diet, F, Fischer 344, Clinical Observation: Thinness Pallor + Body Weight Changes: decrease + Food Consumption: decrease + Hematology: Manual Hct decrease, Plt …): 10.1 mg/kg-day | NOEL (subchronic, diet, M/F, Fischer 344, Clinical Observation: Thinness Pallor + Body Weight Changes: decrease + Food Consumption: decrease + Hematology: Manual Hct decrease, Plt …): < 25.7 mg/kg-day | NOEL (subchronic, diet, M, Fischer 344, Clinical Observation: Thinness Pallor + Body Weight Changes: decrease + Food Consumption: decrease + Hematology: Manual Hct decrease, Plt …): 16.6 mg/kg-day

COc1ccc([N+](=O)[O-])cc1N=Nc1c(O)c(C(=O)Nc2cccc([N+](=O)[O-])c2)cc2ccccc12 [C.I. Pigment Red 23]
NOEL (subchronic, duration: 13 weeks, diet, M/F, Fischer 344, Hematology: Hct decrease, Hgb decrease, RBC decrease + Blood Chemistry: LDH increase + Absolute Organ Weight: Liver + Relative Organ Weight…): < 288 mg/kg-day

NC(=O)c1cccnc1 [Niacinamide]
NOAEL (short-term, duration: 28 days, gavage, M/F, Wistar, Body Weight Changes: decrease + Food Consumption: decrease + Blood Chemistry: AST increase, ALT increase, T-Cho increase, ALP increase, BUN …): 215 mg/kg-day

CC(C)Nc1ccc(NC(C)C)c2c1C(=O)c1ccccc1C2=O [1,4-Bis(N-isopropylamino)anthraquinone]
NOEL (subchronic, duration: 42 days, gavage, M, CD(SD), Clinical Observation: Dark purple feces Purple urine Purple colored skin + Urinalysis: Lite purple colored urine Purple colored urine + …): 12 mg/kg-day

Nc1cc([N+](=O)[O-])ccc1O [2-Amino-4-nitrophenol]
NOAEL [11]: < 150 mg/kg-day | NOEL [11]: < 150 mg/kg-day | NOEL (subchronic, duration: 13 weeks, gavage, M/F, Fischer 344, Deaths + Body Weight Changes: decrease + Absolute Organ Weight: Liver increase + Relative Organ Weight: Liver increase + Histopathology: …): 125 mg/kg-day

BrCCCCCCCCCCBr [1,10-Dibromodecane-]
NOEL (short-term, duration: 28 days, gavage, M/F, Sprague-Dawley, Clinical Observation: Salivation + Water Consumption: increase + Blood Chemistry: BUN increase, Cl increase + Absolute Organ Weight: Liver …): < 8 mg/kg-day

CCCCC(CC)(CO)CO [2-Butyl-2-ethyl-1,3-propanediol]
NOAEL (subchronic, gavage, M, Sprague-Dawley, Clinical Observation: Staggering gait + Water Consumption: increase + Urinalysis: pH decrease + Hematology: LYMPH increase, NEUT decrease + …): 20 mg/kg-day

Cl.Nc1ccccc1-c1ccccc1 [2-Biphenylamine hydrochloride]
NOEL (subchronic, duration: 13 weeks, diet, M/F, Fischer 344, Histopathology: Spleen-Congestion Spleen-Extramedullary hematopoiesis Spleen-Hemosiderosis Spleen-Thickened capsule Spleen-Lymphoid atrophy …): 28.8 mg/kg-day

Oc1cccc2cccnc12 [8-Hydroxyquinoline]
NOEL (subchronic, gavage, M, Sprague-Dawley, Clinical Observation: Salivation + Functional Observational Battery: Salivation + Body Weight Changes: Body weight gain decrease(tendency)…): 100 mg/kg-day

CCC(Cl)C(Cl)C(Cl)CC(Cl)C(Cl)C(C)Cl (stereo unspecified) [C10-12 chloroalkanes]
NOEL (subchronic, duration: 13 weeks, gavage, M/F, Fischer 344, Clinical Observation: Inactive + Body Weight Changes: decrease + Relative Organ Weight: Liver increase + Histopathology: Liver-Hypertrophy, …): < 313 mg/kg-day

CN(C)c1ccc(C(c2ccccc2)c2ccc(N(C)C)cc2)cc1 [Leucomalachite green]
NOEL (subchronic, diet, M, Fischer 344, Body Weight Changes: decrease + Hematology: Hct decrease, Hgb decrease, RBC decrease, Ret increase + Blood Chemistry: Alb decrease, Cho …): < 27.8 mg/kg-day

Cc1cc(O)c(C)c(C)c1O [2,3,5-Trimethylhydroquinone]
NOEL (subchronic, gavage, M, Sprague-Dawley, Deaths + Clinical Observation: Salivation Locomotor activity decrease, Irregular respiration + Body Weight Changes: decrease + Hematology: …): < 10 mg/kg-day

NCCS(=O)(=O)O [l-Taurine]
LOEL [12]: 1000 mg/kg-day | NOAEL [12]: 1000 mg/kg-day | NOEL [12]: 300 mg/kg-day
